Experiments:
Fusarium proliferatum [1] = assay: Treatment of wounded bananas inoculated with Fusarium proliferatum (mould growth); assay type: in vivo; conditions: for Number of moulded wounds/total number of 12 wounds: bananas 20° C.; for Observed antifungal activity O: bananas
Protocol: Four organic, unripe (green) bananas were used per treatment. The peel of each banana was wounded thrice using a cork borer according to the method described by de Lapeyre de Bellaire and Dubois (1987). Subsequently, each wound was inoculated with 15 μl of a Fusarium proliferatum suspension containing 1×10^5 of spores/ml. […] In addition, the antifungal compositions comprised 1.00% (w/w) methylhydroxyethylcellulose (MHEC), 0.40% (w/w) xanthan gum, 0.20% (w/w) anti-foaming agent, 0.30% (w/w) citric acid, 0.39% (w/w) lactic acid and 0.11% (w/w) potassium sorbate. The pH of the composition was 4.0. […] The treated, unripe bananas were incubated in a closed box in the dark at 20° C. and a relative air humidity of 95%, which was obtained in the presence of a saturated Na2HPO4 aqueous solution. During the first 20 days of incubation, a ripe (yellow) banana was included in the closed box to elevate the ethylene gas level and thus induce ripening of the treated, unripe bananas. […]
The expected antifungal activity (E in %) of the combined antifungal composition comprising both active ingredients was calculated according to the Colby equation (Colby, 1967): […]
wherein X and Y are the observed antifungal activities (in %) of the individual active ingredients X and Y, respectively. If the observed antifungal activity (O in %) of the combination exceeds the expected antifungal activity (E in %) of the combination and the synergy factor O/E is thus >1.0, the combined application of the active ingredients leads to a synergistic antifungal effect.

Botrytis cinerea [2] = assay: Treatment of wounded strawberries inoculated with Botrytis cinerea (mould growth); assay type: in vivo; conditions: 250 ppm natamycin; for Number of moulded wounds/total number of 12 wounds (title: Number of moulded strawberries): strawberries 20° C.; for Observed antifungal activity O: strawberries
Protocol: Twelve fresh, organic strawberries were used per treatment. Each strawberry was wounded with a 0.5 mm long cut and each wound was inoculated with 10 μl of a Botrytis cinerea suspension containing 1×10^5 of spores/ml. […] The antifungal compositions also comprised 1.00% (w/w) methylhydroxyethylcellulose (MHEC), 0.40% (w/w) xanthan gum, 0.20% (w/w) anti-foaming agent, 0.30% (w/w) citric acid, 0.39% (w/w) lactic acid and 0.11% (w/w) potassium sorbate. The pH of the composition was 4.0. A composition without natamycin or prothioconazole was used as control. The treated strawberries were incubated in a closed box in the dark at 20° C. for 3 days.
After 2 and 3 days of incubation, the mould growth on the strawberries was assessed in a twofold manner: (i) the number of moulded strawberries per total of 12 strawberries was counted; and (ii) the antifungal activity (in %) of the individual and combined active ingredients was determined by calculating the reduction in mould growth observed on the strawberries treated with the antifungal composition in comparison to the mould growth on the strawberries treated with the control composition according to the Colby method described in Example 4 (Colby, 1967).

Penicillium italicum = assay: Treatment of wounded mandarins inoculated with Penicillium italicum (mould growth); assay type: in vivo
Protocol: Ten fresh, organic mandarins were used per treatment. The peel of each mandarin was wounded once using a cork borer according to the method described by de Lapeyre de Bellaire and Dubois (1987). Subsequently, each wound was inoculated with 10 μl of a Penicillium italicum suspension containing 1×10^4 of spores/ml. […] The pH of the composition was 4.0. […]

Botrytis cinerea [3] = assay: In vitro antifungal activity, 96-well microtiter plates; assay type: cell-based; conditions: in vitro 25° C.
Protocol: The following compositions were tested: […] Subsequently, 100 μl of a Botrytis cinerea suspension prepared in PCB medium was used to inoculated each well with 2.5×10^3 spores/ml. […] The expected antifungal activity (E in %) of the active ingredient combination was calculated according to the Colby equation (Colby, 1967): […] wherein X and Y are the observed antifungal activities (in %) of the individual active ingredients X and Y, respectively.

Fusarium proliferatum [4] = assay: as above; assay type: cell-based; conditions: in vitro 25° C., natamycin 2.5 ppm
Protocol: Subsequently, 100 μl of a Botrytis cinerea suspension prepared in PCB medium was used to inoculated each well with 2.5×10^3 spores/ml.
, the in vitro antifungal activity (%) of the individual active ingredients was assessed by calculating the reduction in mould growth observed in the presence of the active ingredient in comparison to the mould growth observed in the absence of the active ingredient. The expected antifungal activity (E in %) of the active ingredient combination was calculated according to the Colby equation (Colby, 1967): […]
The experiment was conducted as described in Example 13, except for the fact that the following compositions were tested:
Furthermore, Fusarium proliferatum was used for inoculation. The antifungal activity (in %) of the individual and combined active ingredients was determined according to the method described in Example 13.

Structure (SMILES): C[C@@H]1C/C=C/C=C/C=C/C=C/[C@H](O[C@@H]2O[C@H](C)[C@@H](O)[C@H](N)[C@@H]2O)C[C@@H]2O[C@](O)(C[C@@H](O)C[C@H]3O[C@@H]3/C=C/C(=O)O1)C[C@H](O)[C@H]2C(=O)O [Natamycin, natamycin]
- Number of moulded wounds/total number of 12 wounds (Fusarium proliferatum [1]; 50 ppm natamycin, 250 ppm propiconazole or both, Day 29): 12/12
- Number of moulded wounds/total number of 12 wounds (Fusarium proliferatum [1]; 50 ppm natamycin, 250 ppm propiconazole or both, Day 32): 12/12
- Number of moulded wounds/total number of 12 wounds (Fusarium proliferatum [1]; 50 ppm natamycin, 250 ppm propiconazole or both, Day 34): 12/12
- Number of moulded wounds/total number of 12 wounds (Fusarium proliferatum [1]; 50 ppm natamycin, 250 ppm propiconazole or both, Day 36): 12/12
- Number of moulded wounds/total number of 12 wounds (Fusarium proliferatum [1]; 50 ppm natamycin, 250 ppm propiconazole or both, Day 39): 12/12
- Number of moulded wounds/total number of 12 wounds (Fusarium proliferatum [1]; 50 ppm natamycin, 250 ppm propiconazole or both, Day 42): 12/12
- Number of moulded wounds/total number of 12 wounds (Fusarium proliferatum [1]; 250 ppm natamycin, 100 ppm prothioconazole or both, Day 27): 12/12
- Number of moulded wounds/total number of 12 wounds (Fusarium proliferatum [1]; 250 ppm natamycin, 100 ppm prothioconazole or both, Day 28 and 29): 12/12
- Number of moulded wounds/total number of 12 wounds (Fusarium proliferatum [1]; 250 ppm natamycin, 500 ppm propiconazole or both, Day 34): 12/12
- Number of moulded wounds/total number of 12 wounds (Fusarium proliferatum [1]; 250 ppm natamycin, 500 ppm propiconazole or both, Day 36): 12/12
- Number of moulded wounds/total number of 12 wounds (Fusarium proliferatum [1]; 500 ppm natamycin, 150 ppm propiconazole or both, Day 26): 8/12
- Number of moulded wounds/total number of 12 wounds (Fusarium proliferatum [1]; 500 ppm natamycin, 150 ppm propiconazole or both, Day 26, listed as natamycin): 8
- Number of moulded wounds/total number of 12 wounds (Fusarium proliferatum [1]; 500 ppm natamycin, 150 ppm propiconazole or both, Days 27-29): 8/12
- Number of moulded wounds/total number of 12 wounds (Fusarium proliferatum [1]; 500 ppm natamycin, 150 ppm propiconazole or both, Days 27-29, listed as natamycin): 8
- Number of moulded wounds/total number of 12 wounds (Fusarium proliferatum [1]; 500 ppm natamycin, 150 ppm propiconazole or both, Days 31-32): 8/12
- Number of moulded wounds/total number of 12 wounds (Fusarium proliferatum [1]; 500 ppm natamycin, 150 ppm propiconazole or both, Days 31-32, listed as natamycin): 8
- Number of moulded wounds/total number of 12 wounds (Fusarium proliferatum [1]; 500 ppm natamycin, 250 ppm prothioconazole or both, Day 27, 28 and 29): 8/12
- Number of moulded wounds/total number of 12 wounds (Fusarium proliferatum [1]; 500 ppm natamycin, 250 ppm prothioconazole or both, Day 27, 28 and 29, listed as natamycin): 8
- Number of moulded wounds/total number of 12 wounds (Fusarium proliferatum [1]; 500 ppm natamycin, 1000 ppm propiconazole or both, Day 39): 12/12
- Number of moulded wounds/total number of 12 wounds (Fusarium proliferatum [1]; 500 ppm natamycin, 1000 ppm propiconazole or both, Day 42): 12/12
- Observed antifungal activity O (Fusarium proliferatum [1]; 50 ppm natamycin, 250 ppm propiconazole or both, 29 days): 4%
- Observed antifungal activity O (Fusarium proliferatum [1]; 50 ppm natamycin, 250 ppm propiconazole or both, 32 days): 1%
- Observed antifungal activity O (Fusarium proliferatum [1]; 50 ppm natamycin, 250 ppm propiconazole or both, 34 days): 1%
- Observed antifungal activity O (Fusarium proliferatum [1]; 50 ppm natamycin, 250 ppm propiconazole or both, 36 days): 0%
- Observed antifungal activity O (Fusarium proliferatum [1]; 50 ppm natamycin, 250 ppm propiconazole or both, 39 days): 0%
- Observed antifungal activity O (Fusarium proliferatum [1]; 50 ppm natamycin, 250 ppm propiconazole or both, 42 days): 0%
- Observed antifungal activity O (Fusarium proliferatum [1]; 250 ppm natamycin, 50 ppm propiconazole or both, 23 days): 23%
- Observed antifungal activity O (Fusarium proliferatum [1]; 250 ppm natamycin, 50 ppm propiconazole or both, 27 days): 26%
- Observed antifungal activity O (Fusarium proliferatum [1]; 250 ppm natamycin, 50 ppm propiconazole or both, 29 days): 29%
- Observed antifungal activity O (Fusarium proliferatum [1]; 250 ppm natamycin, 500 ppm propiconazole or both, 34 days): 0%
- Observed antifungal activity O (Fusarium proliferatum [1]; 250 ppm natamycin, 500 ppm propiconazole or both, 36 days): 0%
- Observed antifungal activity O (Fusarium proliferatum [1]; 250 ppm natamycin, 500 ppm propiconazole or both, 39 days): 0%
- Observed antifungal activity O (Fusarium proliferatum [1]; 250 ppm natamycin, 500 ppm propiconazole or both, 42 days): 0%
- Observed antifungal activity O (Fusarium proliferatum [1]; 500 ppm natamycin, 150 ppm propiconazole or both, 27 days): 81%
- Observed antifungal activity O (Fusarium proliferatum [1]; 500 ppm natamycin, 150 ppm propiconazole or both, 28 days): 81%
- Observed antifungal activity O (Fusarium proliferatum [1]; 500 ppm natamycin, 150 ppm propiconazole or both, 29 days): 81%
- Observed antifungal activity O (Fusarium proliferatum [1]; 500 ppm natamycin, 150 ppm propiconazole or both, 31 days): 74%
- Observed antifungal activity O (Fusarium proliferatum [1]; 500 ppm natamycin, 150 ppm propiconazole or both, 32 days): 72%
- Number of moulded wounds/total number of 12 wounds (title: Number of moulded strawberries) (Botrytis cinerea [2]; 500 ppm prothioconazole or both, Day 2): 10/12
- Number of moulded wounds/total number of 12 wounds (title: Number of moulded strawberries) (Botrytis cinerea [2]; 500 ppm prothioconazole or both, Day 2, listed as natamycin): 10
- Number of moulded wounds/total number of 12 wounds (title: Number of moulded strawberries) (Botrytis cinerea [2]; 500 ppm prothioconazole or both, Day 3): 12/12
- Number of moulded wounds/total number of 12 wounds (title: Number of moulded strawberries) (Botrytis cinerea [2]; 500 ppm prothioconazole or both, Day 3, listed as natamycin): 12
- Observed antifungal activity O (Botrytis cinerea [2]; 500 ppm prothioconazole (row prints 50 ppm) or both, 3 days): 24%
- Observed antifungal activity O (Botrytis cinerea [2]; 500 ppm prothioconazole or both, 2 days): 31%
- Observed antifungal activity O (Penicillium italicum; 250 ppm natamycin, 150 ppm prothioconazole or both, 13 days): 27%
- Observed antifungal activity O (Penicillium italicum; 250 ppm natamycin, 150 ppm prothioconazole or both, 21 days): 6%
- Observed antifungal activity O (Penicillium italicum; 250 ppm natamycin, 150 ppm prothioconazole or both, 26 days): 5%
- Observed antifungal activity O (Penicillium italicum; 250 ppm natamycin, 150 ppm prothioconazole or both, 29 days): 3%
- Observed antifungal activity O (Penicillium italicum; 250 ppm natamycin, 150 ppm prothioconazole or both, 34 days): 0%
- Observed antifungal activity O (Penicillium italicum; 500 ppm natamycin, 600 ppm prothioconazole or both, 25 days): 34%
- Observed antifungal activity O (Penicillium italicum; 500 ppm natamycin, 600 ppm prothioconazole or both, 28 days): 27%
- Observed antifungal activity O (Penicillium italicum; 500 ppm natamycin, 600 ppm prothioconazole or both, 31 days): 24%
- Observed antifungal activity O (Penicillium italicum; 500 ppm natamycin, 600 ppm prothioconazole or both, 34 days): 24%
- Observed antifungal activity O (Botrytis cinerea [3]; 5 days, natamycin 0.63 ppm, propiconazole 1.00 ppm or both): 0%
- Observed antifungal activity O (Botrytis cinerea [3]; 5 days, natamycin 1.25 ppm, propiconazole 0.50 ppm, prothioconazole 0.13 ppm, or natamycin 1.25 ppm with either): 0%
- Observed antifungal activity O (Botrytis cinerea [3]; 10 days, natamycin 1.25 ppm, prothioconazole 0.13 ppm or both): 0%
- Observed antifungal activity O (Fusarium proliferatum [4]; 3 days, propiconazole 7.5 ppm or both): 0%
- Observed antifungal activity O (Fusarium proliferatum [4]; 10 days, prothioconazole 0.5 ppm or both): 0%
